Measurements reported in ChEMBL document CHEMBL1154825, “Schweinfurthins I and J from Macaranga schweinfurthii” (2010).

Legend:
Type in all cases: functional
[1] = test system: COLO 205; experiment: Growth inhibition of human COLO205 cells; details: read-out: pTGI (converted)
[2] = test system: SK-MEL-2; experiment: Growth inhibition of human SK-MEL-2 cells
[3] = test system: NCI-H226; experiment: Growth inhibition of human NCI-H226 cells
[4] = test system: UACC-257; experiment: Growth inhibition of human UACC257 cells
[5] = Growth inhibition of human NCI60 cells
[6] = test system: SF-268; experiment: Growth inhibition of human SF268 cells
[7] = test system: NCI-H322M; experiment: Growth inhibition of human NCI-H322M cells
[8] = test system: T47D; experiment: Growth inhibition of human T47D cells
[9] = test system: NCI/ADR-RES; experiment: Growth inhibition of human NCI/ADR-RES cells
[10] = test system: SK-MEL-5; experiment: Growth inhibition of human SK-MEL-5 cells
[11] = test system: TK-10; experiment: Growth inhibition of human TK10 cells
[12] = test system: HL-60(TB); experiment: Growth inhibition of human HL-60(TB) cells
[13] = test system: CAKI-1; experiment: Growth inhibition of human Caki1 cells
[14] = test system: SK-MEL-28; experiment: Growth inhibition of human SK-MEL-28 cells
[15] = test system: MDA-MB-468; experiment: Growth inhibition of human MDA-MB-468 cells
[16] = test system: HOP-92; experiment: Growth inhibition of human HOP92 cells
[17] = test system: U-251; experiment: Growth inhibition of human U251 cells
[18] = test system: SK-OV-3; experiment: Growth inhibition of human SKOV3 cells
[19] = test system: SN12C; experiment: Growth inhibition of human SN12C cells
[20] = test system: MDA-MB-435; experiment: Growth inhibition of human MDA-MB-435 cells
[21] = test system: OVCAR-5; experiment: Growth inhibition of human OVCAR5 cells
[22] = test system: A549; experiment: Growth inhibition of human A549 cells
[23] = test system: UO-31; experiment: Growth inhibition of human UO31 cells
[24] = read-out: pLC50 (the source's name) (converted)

CC(C)=CCC/C(C)=C/Cc1cc(/C=C/c2cc(O)cc(O)c2)ccc1O [SCHWEINFURTHIN I]
TGI [1]: 34.7 µM
GI50 [2]: 11.5 µM
LC50 [2]: 56.2 µM
TGI ([2]; read-out: pTGI (converted)): 25.7 µM
GI50 [3]: 16.6 µM
LC50 [3]: 74.1 µM
TGI ([3]; read-out: pTGI (converted)): 35.5 µM
GI50 [4]: 14.5 µM
LC50 [4]: 60.3 µM
TGI ([4]; read-out: pTGI (converted)): 29.5 µM
GI50 [5]: 10 µM
GI50 [6]: 8.71 µM
LC50 [6]: 51.3 µM
TGI ([6]; read-out: pTGI (converted)): 21.9 µM
GI50 [7]: 11.5 µM
LC50 [7]: 51.3 µM
TGI ([7]; read-out: pTGI (converted)): 24.5 µM
GI50 [8]: 10.2 µM
LC50 [8]: 81.3 µM
TGI ([8]; read-out: pTGI (converted)): 28.8 µM
GI50 [9]: 9.33 µM
CC50 [9, 24]: 58.9 µM
TGI ([9]; read-out: pTGI (converted)): 24 µM
GI50 [10]: 4.68 µM
CC50 [10, 24]: 43.7 µM
TGI ([10]; read-out: pTGI (converted)): 17.4 µM
GI50 [11]: 14.8 µM
LC50 [11]: 56.2 µM
TGI ([11]; read-out: pTGI (converted)): 28.8 µM
GI50 [12]: 5.37 µM
CC50 [12, 24]: 77.6 µM
TGI ([12]; read-out: pTGI (converted)): 23.4 µM
GI50 [13]: 5.62 µM
CC50 [13, 24]: 43.7 µM
TGI ([13]; read-out: pTGI (converted)): 18.6 µM
GI50 [14]: 10.7 µM
CC50 [14, 24]: 50.1 µM
TGI ([14]; read-out: pTGI (converted)): 23.4 µM
GI50 [15]: 9.12 µM
CC50 [15, 24]: 53.7 µM
TGI ([15]; read-out: pTGI (converted)): 22.9 µM
GI50 [16]: 12.9 µM
CC50 [16, 24]: 77.6 µM
TGI ([16]; read-out: pTGI (converted)): 31.6 µM
GI50 [17]: 5.5 µM
LC50 [17]: 51.3 µM
TGI ([17]; read-out: pTGI (converted)): 20 µM
GI50 [18]: 15.5 µM
CC50 [18, 24]: 55 µM
TGI ([18]; read-out: pTGI (converted)): 29.5 µM
GI50 [19]: 13.5 µM
CC50 [19, 24]: 61.7 µM
TGI ([19]; read-out: pTGI (converted)): 28.8 µM
GI50 [20]: 7.24 µM
CC50 [20, 24]: 53.7 µM
TGI ([20]; read-out: pTGI (converted)): 21.9 µM
GI50 [21]: 17.4 µM
LC50 [21]: 72.4 µM
TGI ([21]; read-out: pTGI (converted)): 35.5 µM
GI50 [22]: 10.5 µM
LC50 [22]: 66.1 µM
TGI ([22]; read-out: pTGI (converted)): 26.3 µM
GI50 [23]: 6.76 µM
LC50 (concentration killing 50% of cells) [23]: 47.9 µM
TGI ([23]; read-out: pTGI (converted)): 20.9 µM
